Results as given in US8946296B2, “Substituted heteroaryl- and aryl-cyclopropylamine acetamides and their use” (Oryzon Genomics S.A., priority 2009, dated 2015).
pKi: −log10 of the molar value. Counter-ions that a name gives are not always drawn.

Assays:
MAO-A = target: T1, MAO-A (Homo sapiens, UniProt P21397); assay: Monoamine oxidase assay, MAO-A (kynuramine to 4-hydroxyquinoline fluorescence); format: biochemical; details: Ki (IC50) range class; human recombinant MAO-A, kynuramine substrate
T1 construct: purchased Sigma Aldrich
T1 sequence (P21397 1-527): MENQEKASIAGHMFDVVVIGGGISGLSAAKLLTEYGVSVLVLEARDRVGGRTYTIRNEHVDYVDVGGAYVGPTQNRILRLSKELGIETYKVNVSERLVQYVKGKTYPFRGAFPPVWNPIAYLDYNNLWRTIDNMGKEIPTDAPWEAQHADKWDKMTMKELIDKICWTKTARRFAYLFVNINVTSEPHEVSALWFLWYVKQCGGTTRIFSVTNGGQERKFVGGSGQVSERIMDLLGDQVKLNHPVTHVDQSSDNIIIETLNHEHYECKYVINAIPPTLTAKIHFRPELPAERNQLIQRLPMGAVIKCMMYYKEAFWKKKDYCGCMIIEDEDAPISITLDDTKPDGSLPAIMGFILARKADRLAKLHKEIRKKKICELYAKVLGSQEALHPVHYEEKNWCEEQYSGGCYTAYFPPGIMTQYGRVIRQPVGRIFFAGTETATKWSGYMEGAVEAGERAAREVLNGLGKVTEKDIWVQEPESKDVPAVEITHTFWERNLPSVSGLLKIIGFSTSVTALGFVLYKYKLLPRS
Source text: (§1) Human recombinant monoamine oxidase proteins MAO-A and MAO-B were purchased from Sigma Aldrich. […] In order to monitor MAO enzymatic activities and/or their inhibition rate by inhibitor(s) of interest, a fluorescent-based (inhibitor)-screening assay was set up. 3-(2-Aminophenyl)-3-oxopropanamine (kynuramine dihydrobromide, Sigma Aldrich), a non fluorescent compound was chosen as a substrate. Kynuramine is a non-specific substrate for both MAOs activities. While undergoing oxidative deamination by MAO activities, kynuramine is converted into 4-hydroxyquinoline (4-HQ), a resulting fluorescent product.
(§2) The monoamine oxidase activity was estimated by measuring the conversion of kynuramine into 4-hydroxyquinoline. Assays were conducted in 96-well black plates with clear bottom (Corning) in a final volume of 100 μL. The assay buffer was 100 mM HEPES, pH 7.5. Each experiment was performed in triplicate within the same experiment.
(§3) The oxidative deamination of the substrate was stopped by adding 50 μL (v/v) of NaOH 2N.
(§4) The Ki of each inhibitor was measure at Vmax/2.

MAO-B = target: T2, MAO-B (Homo sapiens, UniProt P27338); assay: Monoamine oxidase assay, MAO-B (kynuramine to 4-hydroxyquinoline fluorescence); format: biochemical; details: Ki (IC50) range class; human recombinant MAO-B, kynuramine substrate
T2 construct: purchased Sigma Aldrich
T2 sequence (P27338 1-520): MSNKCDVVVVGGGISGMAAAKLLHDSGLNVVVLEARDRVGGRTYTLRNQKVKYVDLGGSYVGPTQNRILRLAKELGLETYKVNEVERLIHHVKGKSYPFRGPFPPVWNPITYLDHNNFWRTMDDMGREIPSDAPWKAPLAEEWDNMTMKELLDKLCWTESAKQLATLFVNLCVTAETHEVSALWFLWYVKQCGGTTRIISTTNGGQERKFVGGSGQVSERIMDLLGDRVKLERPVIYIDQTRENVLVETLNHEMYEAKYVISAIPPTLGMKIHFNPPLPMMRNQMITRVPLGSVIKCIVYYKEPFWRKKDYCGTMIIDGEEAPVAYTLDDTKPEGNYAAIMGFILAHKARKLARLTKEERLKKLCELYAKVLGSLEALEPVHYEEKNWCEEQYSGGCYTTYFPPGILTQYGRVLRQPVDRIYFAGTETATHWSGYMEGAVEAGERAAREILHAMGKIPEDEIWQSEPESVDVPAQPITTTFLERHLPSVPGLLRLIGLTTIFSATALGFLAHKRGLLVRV
Source text: as §1, §2, §3, §4

LSD1 = LSD1 (Homo sapiens, UniProt O60341); assay: LSD1 inhibition assay (Amplex Red peroxide/peroxidase-coupled, di-methylated H3-K4 peptide substrate)

Compound | pKi (MAO-A) | pKi (MAO-B) | pKi (LSD1)
N#Cc1ccc(COc2ccc([C@@H]3C[C@H]3NCC(N)=O)cc2)cc1 (relative stereo) [Example 1, 2-((trans)-2-(4-(4-cyanobenzyloxy)phenyl)cyclopropylamino)acetamide hydrochloride] | 4.40 to 5.30 | 6.30 to 7.00 | 7.00 to 8.00
N#Cc1cccc(COc2ccc([C@@H]3C[C@H]3NCC(N)=O)cc2)c1 (relative stereo) [Example 2, 2-((trans)-2-(4-(3-cyanobenzyloxy)phenyl)cyclopropylamino)acetamide hydrochloride] | 5.30 to 6.30 | 6.30 to 7.00 | 7.00 to 8.00
NC(=O)CN[C@@H]1C[C@H]1c1ccc(OCc2ccccc2)cc1 (relative stereo) [Example 3, 2-((trans)-2-(4-(benzyloxy)phenyl)cyclopropylamino)acetamide] | 4.40 to 5.30 | 6.30 to 7.00 | 6.30 to 7.00
NC(=O)CN[C@@H]1C[C@H]1c1ccc(OCc2ccc(F)cc2)cc1 (relative stereo) [Example 4, 2-((trans)-2-(4-(4-fluorobenzyloxy)phenyl)cyclopropylamino)acetamide hydrochloride] | < 4.40 | 6.30 to 7.00 | 6.30 to 7.00
NC(=O)CN[C@@H]1C[C@H]1c1ccc(OCc2cccc(F)c2)cc1 (relative stereo) [Example 5, 2-((trans)-2-(4-(3-fluorobenzyloxy)phenyl)cyclopropylamino)acetamide hydrochloride] | 4.40 to 5.30 | 6.30 to 7.00 | 7.00 to 8.00
NC(=O)CN[C@@H]1C[C@H]1c1ccc(OCc2cccc(Cl)c2)cc1 (relative stereo) [Example 6, 2-((trans)-2-(4-(3-chlorobenzyloxy)phenyl)cyclopropylamino)acetamide hydrochloride] | < 4.40 | 6.30 to 7.00 | 7.00 to 8.00
NC(=O)CN[C@@H]1C[C@H]1c1ccc(OCc2ccc(Cl)cc2)cc1 (relative stereo) [Example 7, 2-((trans)-2-(4-(4-chlorobenzyloxy)phenyl)cyclopropylamino)acetamide hydrochloride] | < 4.40 | 6.30 to 7.00 | 6.30 to 7.00
NC(=O)CN[C@@H]1C[C@H]1c1ccc(OCc2cccc(Br)c2)cc1 (relative stereo) [Example 8, 2-((trans)-2-(4-(3-bromobenzyloxy)phenyl)cyclopropylamino)acetamide] | 4.40 to 5.30 | 6.30 to 7.00 | 7.00 to 8.00
NC(=O)CN[C@@H]1C[C@H]1c1ccc(OCc2cc(F)cc(F)c2)cc1 (relative stereo) [Example 9, 2((trans)-2-(4-(3,5-difluorobenzyloxy)phenyl)cyclopropylamino)acetamide] | 4.40 to 5.30 | 6.30 to 7.00 | 7.00 to 8.00
NC(=O)CN[C@@H]1C[C@H]1c1ccc(OCCc2ccccc2)cc1 (relative stereo) [Example 10, 2-((trans)-2-(4-phenethoxyphenyl)cyclopropylamino)acetamide] | 4.40 to 5.30 | 6.30 to 7.00 | 7.00 to 8.00
NC(=O)CN[C@@H]1C[C@H]1c1ccc(-c2cccc(C(F)(F)F)c2)cc1 (relative stereo) [Example 11, 2-((trans)-2-(3′-(trifluoromethyl)biphenyl-4-yl)cyclopropylamino)acetamide] | 4.40 to 5.30 | 6.30 to 7.00 | 6.30 to 7.00
NC(=O)CN[C@@H]1C[C@H]1c1ccc(-c2ccc(Cl)cc2)nc1 (relative stereo) [Example 20, 2-((trans)-2-(6-(4-chlorophenyl)pyridin-3-yl)cyclopropylamino)acetamide] | 5.30 to 6.30 | 5.30 to 6.30 | 7.00 to 8.00
NC(=O)CN[C@H]1C[C@@H]1c1ccc(-c2ccc(-c3ccccc3)cc2)cc1 (stereo in doubt) [Example 12, 2-(2-[1,1′;4′,1″]Terphenyl-4″-yl-cyclopropylamino)acetamide] | < 4.40 | 6.30 to 7.00 | 6.30 to 7.00
